Assay results from US8821568B2, “Implant modified with non-hydroxylated vitamin D precursors” (Numat Biomedical S.L., priority 2008, dated 2014).

Columns and labels:
Type in all cases: cell-based, mouse
MC3T3-E1 cells [1] = assay: LDH activity (cytotoxicity) of cells on treated tissue culture plastic wells; settings: TCP wells; after 24 hours; UV-treated (302 nm, 30 min); higher dose (20 nmols); compared to low control
Experimental: To treat tissue culture plastic (TCP) wells, 10 μl of each dilution treatment were left on the surfaces and were allowed to air-dry for 15 min in the sterile flow bench. For UV-irradiation, a UV lamp of 302 nm was used at an intensity of irradiation of 6 mW/cm^2 (UVP, Upland, Calif., USA) during 30 minutes. Treated surfaces were immediately used for cell culture experiments.
To test the effect of the different treatments onto the plastic wells, 96-well plates made of polystyrene were used and the treatments with 7-DHC performed directly onto them. Cells grown onto untreated TCP were added as a control for all the experiments. Cells were seeded at a density of 30,000 cells/cm^2 and they were maintained in α-MEM supplemented with 10% FCS and antibiotics. […]
(§1) Lactate dehydrogenase (LDH) activity in the culture media was used as an index of cell death. LDH activity was determined spectrophotometrically after 30 min incubation at 25° C. of 50 μl of culture and 50 μl of the reaction mixture by measuring the oxidation of NADH at 490 nm in the presence of piruvate following the manufacturer's protocol (Cytotoxicity Detection Kit (LDH), Roche Diagnostics, Mannheim, Germany). […]

MC3T3-E1 cells [2] = assay: Real-time RT-PCR of vitamin D hydroxylation/degradation enzymes (CYP27A1, CYP27B1, CYP24A1), plastic wells; settings: TCP, 2 days
Experimental: To test the effect of the different treatments onto the plastic wells, 96-well plates made of polystyrene were used and the treatments with 7-DHC performed directly onto them. Cells grown onto untreated TCP were added as a control for all the experiments. Cells were seeded at a density of 30,000 cells/cm^2 and they were maintained in α-MEM supplemented with 10% FCS and antibiotics. Culture media was collected after 48 hours, to test cytotoxicity and the production of the hydroxylated forms of vitamin D. Cells were harvested after 2 days of culture using Trizol reagent (Roche Diagnostics, Mannheim, Germany), to analyse early gene expression response of several osteoblast differentiation markers and enzymes involved in vitamin D synthesis using real-time RT-PCR.
RNA was isolated from cells using a monophasic solution of phenol and guanidine thiocyanate (Trizol, Roche Diagnostics, Mannheim, Germany) according to the manufacturer's protocol. RNA was quantified at 260 nm using a Nanodrop spectrophotometer (NanoDrop Technologies, Wilmington, Del., USA).
Total RNA previously isolated was reverse-transcribed to cDNA using High Capacity RNA to cDNA kit (Applied Biosystems, Foster City, Calif.) according to the protocol of the supplier. The same amount of total RNA from each sample was converted into cDNA. Each cDNA was diluted ¼ and aliquots were stored at −20° C. until the PCR reactions were carried out.
Real-time RT-PCR was performed for two reference genes: 18S ribosomal RNA (18S rRNA), glyceraldehyde-3-phosphate dehydrogenase (GAPDH), and 11 target genes alkaline phospathase (ALP), Interleukin 6 (IL-6), Collagen (Coll-1), Osteocalcin (OC), Bone Morphogenetic Protein 2 (BMP-2), Osterix (Osx), Receptor activator of nuclear factor kappa-B ligand (RANKL), Osteoprogesterin (OPG) and genes involved in vitamin D synthesis such as Vitamin D3 25-hydroxylase (CYP27A1), 25 hydroxyvitamin D3-1-alpha hydroxylase (CYP27B1) and 1,25-dihydroxyvitamin D3 24-hydroxylase (CYP24A1).
Real-time PCR were performed in the Lightcycler 480® (Roche Diagnostics, Germany). […] After each cycle, fluorescence was measured at 72° C. […]
To allow relative quantification after PCR, real-time efficiencies were calculated from the given slopes in the LightCycler 480 software (Roche Diagnostics, Mannheim, Germany) using serial dilutions. Relative quantification after PCR was calculated by normalizing target gene concentration in each sample by the concentration mean of the two reference genes in given sample using the “advanced relative quantification method” provided by the LightCycler 480 analysis software.

MC3T3-E1 cells [3] = assay: LDH activity (cell viability) on coated titanium implants
Experimental: To treat implant surfaces, 10 μl of each dilution treatment were left on the surfaces and were allowed to air-dry for 15 min in the sterile flow bench. For UV-irradiation, a UV lamp of 302 nm was used at an intensity of irradiation ca. 6 mW/cm^2 during several irradiation times.
To test the effect of the surface modification, 96-well plates were used. Ti disks were placed into the wells and treatments and UV-activation were performed over there. Cells grown onto untreated polystyrene tissue culture plastic (TCP) were added as a control for all the experiments. Cells were seeded at a density of 30,000 cells/cm^2 and they were maintained in α-MEM supplemented with 10% FCS and antibiotics. […] Cells were harvested after two days of culture using Trizol reagent (Roche Diagnostics, Mannheim, Germany), to analyze gene expression of several osteoblast differentiation markers and enzymes involved in vitamin D synthesis using real-time RT-PCR. […]
as §1

CC(C)CCC[C@@H](C)[C@H]1CC[C@H]2C3=CC=C4C[C@@H](O)CC[C@]4(C)[C@H]3CC[C@]12C [7-DHC, 7-dehydrocholesterol]
Cytotoxicity (LDH activity in culture media) (MC3T3-E1 cells [1]): toxic effect
CYP27B1 mRNA levels (MC3T3-E1 cells [2]; UV-irradiated, higher concentrated samples, significance was not reached): increase in mRNA levels
CYP27A1 mRNA levels (MC3T3-E1 cells [2]; UV-treated doses above the lowest, vs UV-untreated corresponding doses): dose-response increase
Cytotoxic effect (MC3T3-E1 cells [3]; Ti implants treated and UV-irradiated): No cytotoxic effect
Cell viability (LDH activity) (MC3T3-E1 cells [3]; Ti implants, 0.2 nmols, 24 h, UV-activated 5 to 10 minutes, compared to negative control (TCP)): protective effects
